Measurements published in ChEMBL document CHEMBL1201862, “PubChem BioAssay data set” (2004).
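A five-concentration, 48-hour dose response in 96-well plates underlies each endpoint, interpolated linearly between surrounding concentrations. Here, GI50 denotes the concentration required for 50% inhibition of growth.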 The source made the active and inactive calls. Rule as the data show it: active = GI50 up to about 1.1 µM and inactive = higher.

How the values were obtained:
Test in all cases: growth of human tumour cells (NCI), 48 h
CAKI-1 = test system: CAKI-1
MCF7 = test system: MCF7
NCI-H522 = test system: NCI-H522
SK-MEL-28 = test system: SK-MEL-28
SNB-19 = test system: SNB-19
SK-OV-3 = test system: SK-OV-3
NCI-H23 = test system: NCI-H23
IGROV-1 = test system: IGROV-1
BT-549 = test system: BT-549
LOX IMVI = test system: LOX IMVI
NCI-H460 = test system: NCI-H460
RXF 393 = test system: RXF 393
K562 = test system: K562
UACC-257 = test system: UACC-257
SF-268 = test system: SF-268
HCT-116 = test system: HCT-116
SF-295 = test system: SF-295
HOP-92 = test system: HOP-92
MDA-N = test system: MDA-N
SNB-75 = test system: SNB-75

| SMILES | GI50 (CAKI-1) | GI50 (MCF7) | GI50 (NCI-H522) | GI50 (SK-MEL-28) | GI50 (SNB-19) | GI50 (SK-OV-3) | GI50 (NCI-H23) | GI50 (IGROV-1) | GI50 (BT-549) | GI50 (LOX IMVI) | GI50 (NCI-H460) | GI50 (RXF 393) | GI50 (K562) | GI50 (UACC-257) | GI50 (SF-268) | GI50 (HCT-116) | GI50 (SF-295) | GI50 (HOP-92) | GI50 (MDA-N) | GI50 (SNB-75) |
| --- | --- | --- | --- | --- | --- | --- | --- | --- | --- | --- | --- | --- | --- | --- | --- | --- | --- | --- | --- | --- |
| [N-]=[N+]=CC(=O)OC1CCOCC1 | > 100 µM (inactive) | > 100 µM (inactive) | > 100 µM (inactive) | > 100 µM (inactive) | > 100 µM (inactive) | > 100 µM (inactive) | > 100 µM (inactive) | > 100 µM (inactive) | > 100 µM (inactive) | > 100 µM (inactive) | > 100 µM (inactive) | > 100 µM (inactive) | > 100 µM (inactive) | > 100 µM (inactive) | > 100 µM (inactive) | > 100 µM (inactive) | > 100 µM (inactive) | > 100 µM (inactive) | > 100 µM (inactive) |  |
| COc1cc([C@H]2c3cc(O)c(OC)cc3C[C@]3(O)[C@@H]2CO[C@@H]3O)ccc1O | > 100 µM (inactive) | > 100 µM (inactive) | > 100 µM (inactive) | > 100 µM (inactive) | > 100 µM (inactive) | > 100 µM (inactive) | > 100 µM (inactive) | > 100 µM (inactive) | > 100 µM (inactive) | > 100 µM (inactive) | > 100 µM (inactive) |  | > 100 µM (inactive) | > 100 µM (inactive) | > 100 µM (inactive) | > 100 µM (inactive) | > 100 µM (inactive) | > 100 µM (inactive) | > 100 µM (inactive) | > 100 µM (inactive) |
| O=C1CC(c2cccc(F)c2)Nc2cc3c(cc21)OCO3 (centres undefined) | 0.051 µM (active) | 0.0472 µM (active) | 0.0208 µM (active) |  | 0.0365 µM (active) | 0.0955 µM (active) | 0.0335 µM (active) | 0.0483 µM (active) | > 10 µM (inactive) | 0.0631 µM (active) | 0.0418 µM (active) | 0.0247 µM (active) | < 0.01 µM (active) | 0.0638 µM (active) | 0.0914 µM (active) | 0.0533 µM (active) | 0.042 µM (active) | 0.531 µM (active) | 0.0113 µM (active) |  |
| CC1(C)CC(=O)c2c(N)n[nH]c2C1 | > 100 µM (inactive) | > 100 µM (inactive) | > 100 µM (inactive) | > 100 µM (inactive) | > 100 µM (inactive) |  | > 100 µM (inactive) | > 100 µM (inactive) | > 100 µM (inactive) | > 100 µM (inactive) | > 100 µM (inactive) | > 100 µM (inactive) | > 100 µM (inactive) | > 100 µM (inactive) |  | > 100 µM (inactive) | > 100 µM (inactive) | > 100 µM (inactive) | > 100 µM (inactive) | > 100 µM (inactive) |
| COc1ccc(C)cc1NC(=S)C#N | > 100 µM (inactive) | 32.2 µM (inactive) |  | > 100 µM (inactive) | 28.9 µM (inactive) | 27.8 µM (inactive) | 33.3 µM (inactive) |  | 35.2 µM (inactive) | > 100 µM (inactive) |  | 28.1 µM (inactive) | > 100 µM (inactive) | 35.3 µM (inactive) | 27.5 µM (inactive) | > 100 µM (inactive) | 31.9 µM (inactive) | > 100 µM (inactive) | > 100 µM (inactive) | 25.1 µM (inactive) |
| C[C@@]1(O)C[C@@H](N2C(=O)O[C@@H](c3ccccc3)[C@H]2c2ccccc2)[C@@H]1COCc1ccccc1 | 22 µM (inactive) | 24.5 µM (inactive) | 15 µM (inactive) | 18.2 µM (inactive) | 34.8 µM (inactive) |  | 16.1 µM (inactive) | 25 µM (inactive) | 17.5 µM (inactive) | 15.9 µM (inactive) | 17.7 µM (inactive) | 18.8 µM (inactive) | 19.4 µM (inactive) | 15.9 µM (inactive) | 18.2 µM (inactive) | 19.5 µM (inactive) | 16.4 µM (inactive) | 19 µM (inactive) | 16.2 µM (inactive) |  |
| CC1(C)C2CCC1(C)[C@H](n1c(=O)n([C@@H]3CC4CCC3(C)C4(C)C)c(=O)n([C@@H]3CC4CCC3(C)C4(C)C)c1=O)C2 | 66.7 µM (inactive) | 71.9 µM (inactive) | 37.4 µM (inactive) | 92 µM (inactive) |  |  | 63 µM (inactive) | 65.6 µM (inactive) | 67.1 µM (inactive) | > 100 µM (inactive) | 31.2 µM (inactive) | 19.8 µM (inactive) | 85.9 µM (inactive) | 55.8 µM (inactive) | 41.6 µM (inactive) | 36.7 µM (inactive) | 29.6 µM (inactive) | 87.7 µM (inactive) | 68.4 µM (inactive) | 16.2 µM (inactive) |
| O=P1(Oc2ccccc2)NCc2ncccc2O1 (centres undefined) | > 100 µM (inactive) | > 100 µM (inactive) |  | > 100 µM (inactive) | > 100 µM (inactive) |  | > 100 µM (inactive) | > 100 µM (inactive) | > 100 µM (inactive) | > 100 µM (inactive) | > 100 µM (inactive) | > 100 µM (inactive) | > 100 µM (inactive) | > 100 µM (inactive) |  | > 100 µM (inactive) | > 100 µM (inactive) | > 100 µM (inactive) | > 100 µM (inactive) | > 100 µM (inactive) |
